Target: T1, human mAChR M4 (Homo sapiens, UniProt P08173)
T1 construct: expressed in transfected cells; host or cells: CHO-K1 (ATCC), stably expressing hM4 and Gqi5
T1 sequence (P08173 1-479): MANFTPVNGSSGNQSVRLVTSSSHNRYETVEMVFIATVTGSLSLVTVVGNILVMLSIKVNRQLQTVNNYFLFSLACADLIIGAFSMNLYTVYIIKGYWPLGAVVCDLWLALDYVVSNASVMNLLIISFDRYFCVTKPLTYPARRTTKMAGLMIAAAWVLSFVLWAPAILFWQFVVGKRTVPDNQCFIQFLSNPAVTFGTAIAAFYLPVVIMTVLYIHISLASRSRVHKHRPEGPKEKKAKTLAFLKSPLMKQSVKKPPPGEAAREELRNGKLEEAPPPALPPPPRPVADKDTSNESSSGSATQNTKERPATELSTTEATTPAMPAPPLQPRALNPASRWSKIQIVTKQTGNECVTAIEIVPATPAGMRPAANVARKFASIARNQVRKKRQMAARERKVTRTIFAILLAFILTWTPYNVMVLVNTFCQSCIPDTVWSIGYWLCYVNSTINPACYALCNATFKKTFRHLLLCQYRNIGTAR
Test: mAChR M4 cell-based functional assay: calcium flux (Fluo-4, FDSS), positive allosteric modulator activity on the EC20 acetylcholine response, hM4-Gqi5 CHO-K1 cells
Settings: for Emax at 30 µM: CHO-K1, human M4; for EC50: PAM activity on EC20 acetylcholine response, calcium flux, read-out: Human M4 EC50
Description: Human M4 cDNA, along with the chimeric G protein Gqi5, were transfected into Chinese hamster ovary (CHO-K1) cells purchased from the American Type Culture Collection using commercially available Lipofectamine 2000 transfection reagent (Dalby, B. et al., Methods (2004) 33(2), 95-103). hM4-Gqi5 cells were grown in Ham's F-12 medium containing 10% heat-inactivated fetal bovine serum (FBS), 20 mM […], 50 μg/mL G418 sulfate (CAS #108321-42-2), and 500 μg/mL Hygromycin B. rM4-Gqi5 cells were grown in DMEM containing 10% heat-inactivated FBS, 20 mM HEPES, 400 μg/mL G418 sulfate, and 500 μg/mL Hygromycin B.
For high throughput measurement of agonist-evoked increases in intracellular calcium, CHO-K1 cells stably expressing muscarinic receptors were plated in growth medium lacking G418 sulfate and hygromycin at 15,000 cells/20 μL/well in Greiner 384-well black-walled, tissue culture (TC)-treated, clear-bottom plates (VWR). Cells were incubated overnight at 37° C. and 5% C02. The next day, cells were washed using an ELX 405 (BioTek) with assay buffer; the final volume was then aspirated to 20 μL. Next, 20 μL of a 2.3 μM stock of Fluo-4/acetoxymethyl ester (Invitrogen, Carlsbad, CA), prepared as a 2.3 mM stock in DMSO and mixed in a 1:1 ratio with 10% (w/v) Pluronic F-127 and diluted in assay buffer, was added to the wells and the cell plates were incubated for 50 minutes at 37° C. and 5% C02. Dye was removed by washing with the ELX 405 and the final volume was aspirated to 20 μL. Compound master plates were formatted in an 11 point concentration-response curve (CRC) format (1:3 dilutions) in 100% DMSO with a starting concentration of 10 mM using a BRAVO liquid handler (Agilent). Test compound CRCs were then transferred to daughter plates (240 nL) using the Echo acoustic plate reformatter (Labcyte, Sunnyvale, CA) and then diluted into assay buffer (40 μL) to a 2× stock using a Thermo Fisher Combi (Thermo Fisher Scientific, Waltham, MA).
Calcium flux was measured using the Functional Drug Screening System (FDSS) 6000 or 7000 (Hamamatsu Corporation, Tokyo, Japan) as an increase in the fluorescent static ratio. Compounds were applied to cells (20 μL, 2×) using the automated system of the FDSS at 2-4 seconds into the protocol and the data were collected at 1 Hz. At 144 seconds, 10 μL of an EC20 concentration of the muscarinic receptor agonist acetylcholine was added (5×), followed by the addition of 12 μL of an EC80 concentration of acetylcholine at the 230 second time point (5×). Agonist activity was analyzed as a concentration-dependent increase in calcium mobilization upon compound addition. Positive allosteric modulator activity was analyzed as a concentration-dependent increase in the EC20 acetylcholine response. With the acetylcholine EC20 set as baseline, the test compound EC50 is determined as the concentration that produces an increase above baseline of 50% of the maximum increase in acetylcholine response elicted by the test compound. Antagonist activity was analyzed as a concentration-dependent decrease in the ECso acetylcholine response. Concentration-response curves were generated using a four-parameter logistical equation in XLFit curve fitting software (IDBS, Bridgewater, NJ) for Excel (Microsoft, Redmond, WA) or Prism (GraphPad Software, Inc., San Diego, CA).
Compounds were synthesized as described above. Activity (EC50 and Emax) was determined in the mAChR M4 cell-based functional assay as described above and the data are shown in Table 4. The compound numbers correspond to the compound numbers used in Examples 1-33 and Tables 1, 2, and 3.

Row | Compound | Emax at 30 µM (% ACh maximum at 30 μM) [%] | EC50 (human M4) [nM] | Emax (%) (human M4, % ACh maximum at 30 μM)
1 | CC1CN(c2ncnc3ccc(F)cc23)Cc2cc(C(F)(F)F)cnc21 (racemic) [Compound 115, 6-fluoro-4-[8-methyl-3-(trifluoromethyl)-7,8-dihydro-5H-1,6-naphthyridin-6-yl]quinazoline] | 93 | 60 | –
2 | CC1CN(c2ncnc3ccc(F)cc23)Cc2cc(C(F)(F)F)cnc21 (single isomer, unassigned) [Compound 116, 6-fluoro-4-[(8R or S)-8-methyl-3-(trifluoromethyl)-7,8-dihydro-5H-1,6-naphthyridin-6-yl]quinazoline] | 113 | 70 | –
3 | CC1CN(c2ncnc3ccc(F)cc23)Cc2cc(C(F)(F)F)cnc21 (single isomer, unassigned) [Compound 117, 6-fluoro-4-[(8R or S)-8-methyl-3-(trifluoromethyl)-7,8-dihydro-5H-1,6-naphthyridin-6-yl]quinazoline] | – | 400 | 100
4 | Fc1ccc2ncnc(N3CCc4ncc(-c5cnn(C6CC6)c5)cc4C3)c2c1 [Compound 1, 4-[3-(1-cyclopropylpyrazol-4-yl)-7,8-dihydro-5H-1,6-naphthyridin-6-yl]-6-fluoro-quinazoline] | 99 | 130 | –
5 | Cc1noc(C)c1-c1cnc2c(c1)CN(c1ncnc3ccc(Cl)cc13)CC2 [Compound 2, 4-[6-(6-chloroquinazolin-4-yl)-7,8-dihydro-5H-1,6-naphthyridin-3-yl]-3,5-dimethyl-isoxazole] | 86 | 60 | –
6 | Cc1nc(N2CCc3ncc(-c4ccc(C(F)(F)F)nc4)cc3C2)c2cc(F)ccc2n1 [Compound 3, 6-fluoro-2-methyl-4-[3-[6-(trifluoromethyl)-3-pyridyl]-7,8-dihydro-5H-1,6-naphthyridin-6-yl]quinazoline] | 75 | 460 | –
7 | Cc1nc(N2CCc3ncc(-c4ccc(C(F)(F)F)nc4)cc3C2)c2cc(Cl)ccc2n1 [Compound 4, 6-chloro-2-methyl-4-[3-[6-(trifluoromethyl)-3-pyridyl]-7,8-dihydro-5H-1,6-naphthyridin-6-yl]quinazoline] | 57 | 860 | –
8 | Cc1nc(N2CCc3ncc(-c4cnn(C5CC5)c4)cc3C2)c2cc(F)ccc2n1 [Compound 5, 4-[3-(1-cyclopropylpyrazol-4-yl)-7,8-dihydro-5H-1,6-naphthyridin-6-yl]-6-fluoro-2-methyl-quinazoline] | 80 | 340 | –
9 | Cc1ccc2ncnc(N3CCc4ncc(-c5cnn(C6CC6)c5)cc4C3)c2c1 [Compound 12, 4-[3-(1-cyclopropylpyrazol-4-yl)-7,8-dihydro-5H-1,6-naphthyridin-6-yl]-6-methyl-quinazoline] | 114 | 230 | –
10 | Cn1cc(-c2cnc3c(c2)CN(c2ncnc4ccc(F)cc24)CC3)cn1 [Compound 15, 6-fluoro-4-[3-(1-methylpyrazol-4-yl)-7,8-dihydro-5H-1,6-naphthyridin-6-yl]quinazoline] | 105 | 40 | –
11 | Fc1ccc2ncnc(N3CCc4ncc(-c5ccc(C(F)(F)F)nc5)cc4C3)c2c1 [Compound 16, 6-fluoro-4-[3-[6-(trifluoromethyl)-3-pyridyl]-7,8-dihydro-5H-1,6-naphthyridin-6-yl]quinazoline] | 89 | 360 | –
12 | Clc1ccc2ncnc(N3CCc4ncc(-c5cnn(C6CC6)c5)cc4C3)c2c1 [Compound 17, 6-chloro-4-[3-(1-cyclopropylpyrazol-4-yl)-7,8-dihydro-5H-1,6-naphthyridin-6-yl]quinazoline] | 78 | 120 | –
13 | Cn1nccc1-c1cnc2c(c1)CN(c1ncnc3ccc(F)cc13)CC2 [Compound 18, 6-fluoro-4-[3-(2-methylpyrazol-3-yl)-7,8-dihydro-5H-1,6-naphthyridin-6-yl]quinazoline] | 70 | 40 | –
14 | Cc1nc(N2CCc3ncc(-c4cnn(C5CC5)c4)cc3C2)c2cc(Cl)ccc2n1 [Compound 19, 6-chloro-4-[3-(1-cyclopropylpyrazol-4-yl)-7,8-dihydro-5H-1,6-naphthyridin-6-yl]-2-methyl-quinazoline] | 80 | 390 | –

Now from value to molecule:

Row | Emax at 30 µM (% ACh maximum at 30 μM) [%] | EC50 (human M4) [nM] | Emax (%) (human M4, % ACh maximum at 30 μM) | Compound
15 | 88 | 70 | – | Cc1nn(C)cc1-c1cnc2c(c1)CN(c1ncnc3ccc(Cl)cc13)CC2 [Compound 6, 6-chloro-4-[3-(1,3-dimethylpyrazol-4-yl)-7,8-dihydro-5H-1,6-naphthyridin-6-yl]quinazoline]
16 | 93 | 250 | – | Cc1nc(N2CCc3ncc(-c4cn(C)nc4C)cc3C2)c2cc(Cl)ccc2n1 [Compound 7, 6-chloro-4-[3-(1,3-dimethylpyrazol-4-yl)-7,8-dihydro-5H-1,6-naphthyridin-6-yl]-2-methyl-quinazoline]
17 | 87 | 60 | – | Cc1nn(C)cc1-c1cnc2c(c1)CN(c1ncnc3cc(F)c(F)cc13)CC2 [Compound 8, 4-[3-(1,3-dimethylpyrazol-4-yl)-7,8-dihydro-5H-1,6-naphthyridin-6-yl]-6,7-difluoro-quinazoline]
18 | 66 | 2490 | – | Cc1nn(C)cc1-c1cnc2c(c1)CN(c1nc(Cl)nc3ncccc13)CC2 [Compound 9, 2-chloro-4-[3-(1,3-dimethylpyrazol-4-yl)-7,8-dihydro-5H-1,6-naphthyridin-6-yl]pyrido[2,3-d]pyrimidine]
19 | 90 | 120 | – | Cc1nc(N2CCc3ncc(-c4cn(C)nc4C)cc3C2)c2cc(F)ccc2n1 [Compound 10, 4-[3-(1,3-dimethylpyrazol-4-yl)-7,8-dihydro-5H-1,6-naphthyridin-6-yl]-6-fluoro-2-methyl-quinazoline]
20 | 83 | 100 | – | Cc1nn(C)cc1-c1cnc2c(c1)CN(c1ncnc3ccc(F)cc13)CC2 [Compound 11, 4-[3-(1,3-dimethylpyrazol-4-yl)-7,8-dihydro-5H-1,6-naphthyridin-6-yl]-6-fluoro-quinazoline]
21 | 109 | 370 | – | COc1ccc2ncnc(N3CCc4ncc(-c5cn(C)nc5C)cc4C3)c2c1 [Compound 13, 4-[3-(1,3-dimethylpyrazol-4-yl)-7,8-dihydro-5H-1,6-naphthyridin-6-yl]-6-methoxy-quinazoline]
22 | 117 | 160 | – | Cc1ccc2ncnc(N3CCc4ncc(-c5cn(C)nc5C)cc4C3)c2c1 [Compound 14, 4-[3-(1,3-dimethylpyrazol-4-yl)-7,8-dihydro-5H-1,6-naphthyridin-6-yl]-6-methyl-quinazoline]
23 | 86 | 150 | – | Cc1nc(N2CCc3ncc(-c4ccnn4C)cc3C2)c2cc(F)ccc2n1 [Compound 20, 6-fluoro-2-methyl-4-[3-(2-methylpyrazol-3-yl)-7,8-dihydro-5H-1,6-naphthyridin-6-yl]quinazoline]

Source: patent US20250026752A1, “POSITIVE ALLOSTERIC MODULATORS OF THE MUSCARINIC ACETYLCHOLINE RECEPTOR M4” (Vanderbilt University, priority 2021, published 2025)
